Some test systems named below: NCI-H460; A549; ACHN; SK-OV-3; NCI/ADR-RES; MDA-MB-435; SF-539; MCF7; RXF 393; A498; SF-268; SK-MEL-2; CCRF-CEM; SN12C; M14; SNB-19; HL-60; 786-0; K562; MDA-MB-231.
Holding throughout (experiment): growth of human tumour cells (NCI), 48 h

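Cells were grown in 96-well plates and exposed to each compound for 48 hours at five concentrations; endpoints were interpolated linearly between bracketing concentrations, or set to the highest concentration if not reached. GI50 = concentration required for 50% inhibition of growth.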 The source made the active and inactive calls. Rule as the data show it: active = GI50 up to about 1.1 µM and inactive = higher. Where only a bound is given, the exact number is not on record here.

Take `c1ccc2c(c1)CCN(C1=NCCO1)C2`: the GI50 in the test on NCI-H460, in the test on A549, in the test with ACHN, with SK-OV-3, in the test with NCI/ADR-RES and with MDA-MB-435 was > 10 µM (inactive) each time. The GI50 in the test with SF-539, in the test with MCF7, with RXF 393, in the test on A498, in the test on SF-268 and in the test on SK-MEL-2 was > 10 µM (inactive) throughout. Besides, the GI50 with CCRF-CEM, in the test on SN12C, in the test with M14, in the test on SNB-19, in the test with HL-60 and in the test with 786-0 was > 10 µM (inactive) each time. Moreover, the GI50 in the test with K562 and in the test with MDA-MB-231 was > 10 µM (inactive) throughout.
In the case of `[O-][n+]1onc2c1CCC(=N\O)/C2=N/Nc1ccccc1`, the GI50 in the test with NCI-H460, in the test with A549, in the test with ACHN, in the test with SK-OV-3, in the test on NCI/ADR-RES and with MDA-MB-435 was > 100 µM (inactive) throughout. In addition, the GI50 with SF-539, with MCF7, in the test with RXF 393, in the test with A498, in the test on SF-268 and in the test with SK-MEL-2 was > 100 µM (inactive) in each case. The GI50 in the test with CCRF-CEM was > 100 µM (inactive); with SN12C, > 100 µM (inactive); in the test on M14 it was > 100 µM (inactive); in the test with SNB-19, > 100 µM (inactive); in the test with HL-60 it was 49.4 µM (inactive); in the test on 786-0, > 100 µM (inactive). Also, the GI50 in the test with K562 and with MDA-MB-231 was > 100 µM (inactive) each time.
`CNC(=O)N(CCC#N)CCCN(C(=O)N(C)C)c1ccccc1`: the GI50 with NCI-H460, in the test on A549, with ACHN, in the test on SK-OV-3, with NCI/ADR-RES and in the test with MDA-MB-435 was > 100 µM (inactive) in each case. Besides, the GI50 in the test on SF-539, in the test with MCF7, in the test on RXF 393, with A498, in the test with SF-268 and with SK-MEL-2 was > 100 µM (inactive) each time. The GI50 in the test with CCRF-CEM, in the test on SN12C, in the test on M14, with SNB-19, with HL-60 and with 786-0 was > 100 µM (inactive) in each case. The GI50 in the test with K562 and in the test on MDA-MB-231 was > 100 µM (inactive) in each case.
On to `Cn1c2c3c(F)c(F)ccc3nc-2cc2ccccc21`, for which the GI50 in the test with NCI-H460 is 1.04 µM (active); in the test with A549, 2.34 µM (inactive); in the test on ACHN, 0.583 µM (active); in the test on SK-OV-3, 5.57 µM (inactive); in the test on NCI/ADR-RES, 1.49 µM (inactive); in the test with MDA-MB-435, 3.88 µM (inactive). For the same compound, the GI50 was 2.06 µM (inactive) in the test with SF-539; 0.431 µM (active) in the test on MCF7; 4.05 µM (inactive) with RXF 393; 0.443 µM (active) in the test on A498; 3.24 µM (inactive) in the test with SF-268; 3.27 µM (inactive) in the test with SK-MEL-2. Besides, the GI50 with CCRF-CEM is 1.91 µM (inactive); with SN12C, 0.861 µM (active); in the test with M14, 2.11 µM (inactive); with SNB-19, 3.79 µM (inactive); in the test with HL-60, 13 µM (inactive); with 786-0 it was 0.519 µM (active). The values for the GI50 with K562 and with MDA-MB-231 were 3.11 µM (inactive) and 3.3 µM (inactive), respectively.
Regarding `O=C(c1ccccc1)c1ccc(-n2c3ccccc3c3ccc4c(c32)C(=O)C=CC4=O)cc1`, the GI50 in the test on NCI-H460 was 18.5 µM (inactive); in the test on A549, 18.5 µM (inactive); in the test on ACHN, 4.38 µM (inactive); in the test on SK-OV-3 it was 20.9 µM (inactive); in the test on NCI/ADR-RES, 18.8 µM (inactive); in the test with MDA-MB-435, 6.01 µM (inactive). Further, the GI50 in the test with SF-539 is 10.4 µM (inactive); in the test with MCF7 it was 3.21 µM (inactive); with RXF 393 it was 5.24 µM (inactive); in the test on A498, 12.2 µM (inactive); in the test with SF-268 it was 10.7 µM (inactive); in the test on SK-MEL-2, 19.3 µM (inactive). The GI50 in the test on CCRF-CEM is 1.11 µM (active); in the test with SN12C, 9.08 µM (inactive); in the test with M14 it was 9.2 µM (inactive); with SNB-19, 20.9 µM (inactive); in the test on HL-60, 2.8 µM (inactive); with 786-0 it was 2.06 µM (inactive). For the same compound, the GI50 in the test on K562 is 3.4 µM (inactive); with MDA-MB-231 it was 8.24 µM (inactive).
In the case of `COc1cc2c3cc1Oc1c(OC)c(OC)cc4c1C(=NCC4)Cc1ccc(cc1)Oc1cc(ccc1O)C[C@H]3N(C)CC2`, the GI50 is 15.6 µM (inactive) in the test on NCI-H460; 37.5 µM (inactive) in the test on A549; 23.1 µM (inactive) with ACHN; 48.6 µM (inactive) in the test on SK-OV-3; 13.6 µM (inactive) in the test on NCI/ADR-RES; 18.5 µM (inactive) in the test with MDA-MB-435. In addition, the GI50 in the test on SF-539 is 14.8 µM (inactive); in the test with MCF7 it was 25.8 µM (inactive); in the test on RXF 393, 10 µM (inactive); in the test with A498, 22 µM (inactive); in the test with SF-268, 22.6 µM (inactive); in the test with SK-MEL-2, 16.7 µM (inactive). The GI50 with CCRF-CEM was 30 µM (inactive); with SN12C, 22.9 µM (inactive); in the test with M14, 16.3 µM (inactive); in the test on SNB-19, 23.4 µM (inactive); with HL-60, 14 µM (inactive); in the test with 786-0 it was 10.4 µM (inactive). Moreover, the GI50 with K562 was 12.7 µM (inactive); in the test on MDA-MB-231, 12.9 µM (inactive).
Regarding `O=C(O)C/C(=C\c1ccccc1)C(=O)O`, the GI50 in the test with NCI-H460, with A549, with ACHN, in the test on SK-OV-3, in the test with NCI/ADR-RES and with MDA-MB-435 was > 100 µM (inactive) in each case. Besides, the GI50 in the test with SF-539, in the test with MCF7, in the test with RXF 393, with A498, in the test with SF-268 and in the test with SK-MEL-2 was > 100 µM (inactive) each time. The GI50 in the test on CCRF-CEM, in the test with SN12C, in the test with M14, in the test with SNB-19, in the test on HL-60 and in the test with 786-0 was > 100 µM (inactive) throughout. Moreover, the GI50 with K562 is 31.7 µM (inactive); in the test with MDA-MB-231, > 100 µM (inactive).
